Measurements published in patent publication US20150064221A1, “COMPOUNDS HAVING IMMUNOMUDULATOR ACTIVITY” (priority 2012, published 2015).
Entries after “also recorded” stand apart in the source; their conditions may differ.

Tests used:
[1] = target: CYP450 1A2 (Homo sapiens, UniProt P05177); assay: CYP450 inhibition; format: in vitro ADME
Experimental: (§1) The highest plasma concentrations generally occurred in 1-2 hours. […] The highest level of inhibition was ˜35% for 2C19 at a 30 μM concentration. […] Lastly, VGX-1027 is stable in human liver S9 fractions (with phase 1 and 2 cofactors) with t1/2>90 minutes, which indicates a low likelihood of metabolism in the liver.

[2] = target: CYP450 2C19 (Homo sapiens, UniProt P33261); assay: CYP450 inhibition; format: in vitro ADME; conditions: 2C19
Experimental: as §1

[3] = target: CYP450 2D6 (Homo sapiens, UniProt P10635); assay: CYP450 inhibition; format: in vitro ADME
Experimental: as §1

[4] = target: CYP450 2C9 (Homo sapiens, UniProt P11712); assay: CYP450 inhibition; format: in vitro ADME
Experimental: as §1

[5] = target: CYP450 3A4 (Homo sapiens, UniProt P08684); assay: CYP450 inhibition; format: in vitro ADME
Experimental: as §1

[6] = target: CYP2C19 (Homo sapiens, UniProt P33261); assay: CYP450 inhibition; format: in vitro ADME; conditions: human; 2C19 at 30 μM; read-out: highest level of inhibition
Experimental: as §1

[7] = test system: Peritoneal macrophages (PM); assay: In vitro cytokine synthesis by peritoneal macrophages; format: cell-based, mice
From the text: (§2) Peritoneal macrophages (PM) and splenic mononuclear cells (SMNC) were isolated from normal mice, cultured in nutrient medium and stimulated with LPS and/or ConA in the absence or presence of VGX-1027. […] VGX-1027 had no effect on MIF expression in either cell type, on proliferation of SMNC, and on IL-10 and Interferon (IFN) γ production by SMNC.

[8] = test system: type II collagen-induced arthritis; assay: Type II collagen-induced arthritis (CIA); format: in vivo, mice
Experimental: VGX-1027 was administered intraperitoneally and were measured for an arthritic score (A), cumulative arthritic score (B), hind paws edema (C), and histological score (D) were measured. Data are shown as mean values±SD form 2 independent experiments. Statistical analysis was performed by Student's t test. *p<0.0001 was taken as significant.
To induce CIA, the mice were injected intradermally at the base of the tail with […] of an emulsion containing […] of CII, and were boosted on day 21. In terms of treatment, VGX-1027 was used only as a “therapeutic” regime by administering the drug via intraperitoneal administration to mice with a clinical score equal or higher than 1. The mice were treated with vehicle, dexamethasone (0.3 mg/kg), or VGX-1027 (0.5 mg/mouse) for 10 consecutive days. The mice were assessed with the following scoring system: 0=no signs of arthritis; 1=swelling and/or redness of the paw or 1 digit; 2=involvement of 2 joints; 3=involvement of N2 joints, and 4=severe arthritis of the entire paw and digits. An arthritis index was calculated for each mouse by summing the scores for the individual paws. Other clinical severity measures were hind paw volume and histological assessment of damage; the latter was measured with the following criteria: 0=no damage; 1=edema; 2=presence of inflammatory cells; and 3-bone resorption.

[9] = test system: splenic mononuclear cells (SMNC); assay: Ex vivo proliferation and cytokine synthesis of SMNC from treated mice; format: cell-based
Experimental: These experiments were carried out to explore if intraperitoneal (i.p.) or oral administration (p.o.) in mice with VGX-1027 could influence the proliferative response of SMNC and the production of IL-1β, IL-10, TNF-α, IFN-γ and MIF from isolated PM and SMNC. PM and SMNC isolated from mice treated in vivo with VGX-1027 for 7 consecutive days intraperitoneally (0.5 mg/mouse), or orally (2.5 mg/mouse), or isolated from control animals that received VGX-1027 vehicle (Na2HPO4/H2O), or were without any treatment. 24 h after the last VGX-1027 treatment, PM and SMNC were collected for further in vitro stimulation and analysis.

[10] = Plasma pharmacokinetics after intraperitoneal administration; format: in vivo; conditions: mouse, ip, mice, i.p. 20 mg/kg
Experimental: To determine the pharmacokinetic properties of VGX-1027, drug concentrations were analyzed in the plasma of mice. The drug was measured post intraperitoneum administration at 20 mg/kg […] in 500 mM Na2HPO4, which is a therapeutically active concentration. […] Based on the linear part of the pharmacokinetic profile, the t1/2 of VGX-1027 is approximately 90 minutes.

[11] = test system: splenic mononuclear cells (SMNC); assay: In vitro proliferation and cytokine synthesis of splenic mononuclear cells; format: cell-based, mice
From the text: as §2

CYP450 2C9, sequence (P11712 whole entry): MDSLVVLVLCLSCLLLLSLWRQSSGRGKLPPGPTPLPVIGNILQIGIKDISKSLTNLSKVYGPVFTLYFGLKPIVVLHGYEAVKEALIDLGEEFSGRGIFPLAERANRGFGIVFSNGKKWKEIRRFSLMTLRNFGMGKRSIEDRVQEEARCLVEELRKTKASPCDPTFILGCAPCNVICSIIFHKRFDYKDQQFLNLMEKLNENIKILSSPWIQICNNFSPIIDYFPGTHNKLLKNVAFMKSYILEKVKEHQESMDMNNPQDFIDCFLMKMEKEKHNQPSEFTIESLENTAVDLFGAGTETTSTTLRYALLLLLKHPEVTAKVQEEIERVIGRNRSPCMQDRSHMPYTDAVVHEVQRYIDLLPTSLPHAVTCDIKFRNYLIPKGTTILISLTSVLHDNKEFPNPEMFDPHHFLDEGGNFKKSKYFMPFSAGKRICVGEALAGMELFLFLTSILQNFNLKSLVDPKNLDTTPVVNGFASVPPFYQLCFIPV
CYP450 1A2, sequence (P05177 whole entry): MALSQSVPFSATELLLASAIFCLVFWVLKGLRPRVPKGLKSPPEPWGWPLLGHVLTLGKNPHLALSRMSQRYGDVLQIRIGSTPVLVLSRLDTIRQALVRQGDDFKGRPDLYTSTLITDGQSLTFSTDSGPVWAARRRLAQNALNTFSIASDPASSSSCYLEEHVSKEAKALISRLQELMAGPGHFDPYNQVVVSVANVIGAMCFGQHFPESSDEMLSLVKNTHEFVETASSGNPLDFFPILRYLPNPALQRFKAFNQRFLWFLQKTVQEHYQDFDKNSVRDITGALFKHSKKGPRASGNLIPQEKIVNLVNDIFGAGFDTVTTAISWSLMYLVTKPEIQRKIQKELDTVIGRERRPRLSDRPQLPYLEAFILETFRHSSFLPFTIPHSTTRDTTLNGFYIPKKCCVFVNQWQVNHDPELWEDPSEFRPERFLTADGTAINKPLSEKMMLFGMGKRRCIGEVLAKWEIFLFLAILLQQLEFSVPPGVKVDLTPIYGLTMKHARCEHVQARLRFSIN
CYP450 2D6, sequence (P10635 whole entry): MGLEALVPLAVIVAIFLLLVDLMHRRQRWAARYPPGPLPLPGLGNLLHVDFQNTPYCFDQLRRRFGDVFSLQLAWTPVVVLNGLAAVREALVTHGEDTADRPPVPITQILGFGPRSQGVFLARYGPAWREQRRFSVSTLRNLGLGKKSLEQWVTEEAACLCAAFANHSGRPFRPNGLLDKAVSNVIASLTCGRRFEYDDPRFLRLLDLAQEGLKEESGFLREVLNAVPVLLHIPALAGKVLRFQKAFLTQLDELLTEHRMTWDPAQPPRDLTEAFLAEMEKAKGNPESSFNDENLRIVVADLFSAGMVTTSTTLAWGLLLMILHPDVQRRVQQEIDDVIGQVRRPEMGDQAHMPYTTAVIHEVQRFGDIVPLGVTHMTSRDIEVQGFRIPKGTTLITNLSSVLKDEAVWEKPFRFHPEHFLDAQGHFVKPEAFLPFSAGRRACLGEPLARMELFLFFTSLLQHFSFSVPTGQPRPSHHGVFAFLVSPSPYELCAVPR
CYP450 3A4, sequence (P08684 whole entry): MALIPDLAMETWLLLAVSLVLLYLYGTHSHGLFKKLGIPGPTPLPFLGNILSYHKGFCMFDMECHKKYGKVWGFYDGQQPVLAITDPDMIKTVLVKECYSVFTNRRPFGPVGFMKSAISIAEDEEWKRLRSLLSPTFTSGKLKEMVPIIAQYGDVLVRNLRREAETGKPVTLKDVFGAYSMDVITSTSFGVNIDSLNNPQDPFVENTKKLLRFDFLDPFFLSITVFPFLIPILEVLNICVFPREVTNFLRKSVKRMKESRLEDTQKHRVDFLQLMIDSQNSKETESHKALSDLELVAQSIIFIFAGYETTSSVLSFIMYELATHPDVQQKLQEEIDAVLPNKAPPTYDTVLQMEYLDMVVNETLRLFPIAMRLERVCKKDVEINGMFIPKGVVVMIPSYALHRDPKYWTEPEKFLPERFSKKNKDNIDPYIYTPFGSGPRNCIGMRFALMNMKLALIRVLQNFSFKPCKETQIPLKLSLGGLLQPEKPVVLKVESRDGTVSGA
CYP2C19, sequence (P33261 whole entry): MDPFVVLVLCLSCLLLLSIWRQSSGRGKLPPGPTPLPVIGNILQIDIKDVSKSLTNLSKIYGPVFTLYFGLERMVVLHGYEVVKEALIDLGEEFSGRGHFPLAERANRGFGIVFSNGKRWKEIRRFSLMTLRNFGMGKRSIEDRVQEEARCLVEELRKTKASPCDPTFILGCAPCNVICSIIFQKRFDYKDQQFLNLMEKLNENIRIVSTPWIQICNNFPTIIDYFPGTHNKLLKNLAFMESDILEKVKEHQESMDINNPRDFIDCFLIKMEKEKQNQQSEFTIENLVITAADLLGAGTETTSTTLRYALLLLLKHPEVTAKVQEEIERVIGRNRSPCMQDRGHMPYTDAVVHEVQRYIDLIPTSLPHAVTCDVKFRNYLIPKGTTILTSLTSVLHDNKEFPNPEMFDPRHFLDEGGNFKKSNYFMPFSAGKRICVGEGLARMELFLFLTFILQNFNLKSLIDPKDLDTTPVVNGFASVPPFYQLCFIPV
CYP450 2C19, sequence (P33261 whole entry): as above

O=C(O)CC1CC(c2ccccc2)=NO1 (stereo not drawn) [VGX-1027, 3-phenyl-4,5-dihydro-5-isoxazoleacetic acid]
CYP450 inhibition [1]: no significant inhibition
CYP450 inhibition [2]: no significant inhibition
CYP450 inhibition [3]: no significant inhibition
CYP450 inhibition [4]: no significant inhibition
CYP450 inhibition [5]: no significant inhibition
inhibition at 30 µM [6]: ~35%
IL-1 β production [7]: inhibited
IL-10 production [7]: inhibited
MIF expression [7]: no effect
TNF-α production ([7]; LPS and/or ConA stimulated): markedly inhibited
hind paw volume ([8]; after 3 days of therapy): significant decreases
mean arthritic score ([8]; after 3 days of therapy): significant decreases
inflammation via histological measurement ([8]; mouse, in vivo): improvements
clinical features of CIA ([8]; therapeutic, i.p. 0.5 mg/mouse, 10 days): attenuated; also recorded: comparable to the amount observed with dexamethasone
IFN-γ production [9]: normal capacity
IL-1 β production [9]: normal capacity
IL-10 production [9]: normal capacity
MIF expression [9]: normal expression pattern
TNF-α production [9]: normal capacity
capacity to proliferate ([9]; mice treated 7 days): normal capacity
Tmax ([10]; 20 mg/kg): 2 h
concentration at 6 h ([10]; after 6 hours post injection, read-out: plasma drug concentration): < 10 µg/mL
concentration at 30 min ([10]; by 30 minutes post injection, read-out: plasma drug concentration): > 80 µg/mL
half-life ([10]; linear part of the profile): ~1.5 h
Cmax ([10]; read-out: peak plasma concentration (Cmax)): 130 µg/mL
IL-10 production [11]: no effect
Interferon (IFN) γ production [11]: no effect
MIF expression [11]: no effect
proliferation [11]: no effect
TNF-α production ([11]; LPS and/or ConA stimulated): markedly inhibited
